From patent US10221426B2, “Constitutively active PYR/PYL receptor proteins for improving plant stress tolerance” (The Regents of the University of California, priority 2009, dated 2019)

Tested on: Arabidopsis seeds
Test: Seed germination inhibition
Type: in vivo
Details: for amount required to ensure 100% inhibition of germination: scored 3 days post-imbibition, dose curve analyses
Experimental: FIG. 1. Pyrabactin is a seed selective ABA agonist. (A) Structures of molecules described in this study. (B) Pyrabactin activity is suppressed by abi1-1. Seeds of the genotype shown at top were imbibed on media containing 25 μM pyrabactin and scored for germination 4 days after stratification. Shown at bottom are IC50 values for pyrabactin's germination effect on the genotypes characterized. (C) Microarray comparison of pyrabactin and ABA treatments in seeds. The Y-axis plots the log2 transformed value for a probe's response to 25 μM pyrabactin (relative to untreated control) and the X-axis a probe's response to 1 μM ABA. […] (D) Microarray comparison of cycloheximide and ABA responses in seeds. […] (E) Microarray comparison of pyrabactin and ABA responses in seedlings. Seven-day old seedlings were transferred to 10 μM ABA or 50 μM pyrabactin containing plates for 24 hours and then mRNA samples profiled. Inset in each scatter plot is the Pearson correlation coefficient for each comparison. Detailed microarray methods are described in the Examples section.
FIG. 2. PYR1 encodes an ABA responsive START-domain protein. (A) Pyr1 alleles. Shown are the allele names, strain names (in parentheses) and amino acid changes caused by the Pyr1 mutant alleles identified by screening for pyrabactin resistant mutations. (B) Pictographic representation of Pyr1 and Pyl1-Pyl4 expression values housed in public microarray databases. The heatmap shown at top right is for the first upper three panels and the bottom heatmap for the guard cell data. Plots were made using the eFP browser (D. Winter et al., PLoS ONE 2, e718 (2007)). (C) 35S::GFP-PYR1 complements pyr1-1. Seeds of the genotypes shown were stratified 4 days on 25 μM pyrabactin and then germinated at RT, 90% RH for 3 days in darkness. […] (D) Pyr/Pyls are required for normal ABA-induced gene expression in seedlings. Shown are qRT-PCR results for the ABA-responsive gene RD29. L, Ler; C, Col; and Q, quadruple mutant. (E) Pyr/Pyl genes are required for normal ABA-induced stress-induced gene expression in seedlings. Shown are qRT-PCR results for two ABA-responsive taqman probes, as described in the Examples section. L=Ler, C=Col, Q=quadruple mutant.
As part of an earlier effort, we identified a germination inhibitor named pyrabactin (Y. Zhao et al., Nat Chem Biol 3, 716 (2007)). […] To test this hypothesis, we examined the pyrabactin sensitivity of mutant lines with altered ABA signaling, biosynthesis or gibberellic acid (GA) perception.
We next performed microarray experiments to evaluate the similarity of the transcriptional responses induced by ABA and pyrabactin treatments. For microarray, tissue was prepared and RNA extracted from Columbia wild type seeds sown on 0.5×MS media (˜2500 seeds per 150 mm plate) containing either 1 μM ABA, 25 μM pyrabactin, 25 μM 2,4-Dinitrophenol (DNP), 1 μM cycloheximide, 2 μM methotrexate or 1% DMSO control plates (all chemicals are dissolved in DMSO). The concentrations utilized for these experiments were normalized for germination inhibition activity by dose curve analyses, i.e. the amount of both compounds required to ensure 100% inhibition of germination when scored 3 days post-imbibition. ABA (±stereoisomers), DNP, cycloheximide and methotrexate were purchased from Sigma Aldrich. Seeds were stratified for 4 days and then incubated in the dark at room temperature for 24 hours. […]

Structure (SMILES) | amount required to ensure 100% inhibition of germination [µM] | effect on germination (in vivo) | germination of Columbia wild type seeds (stratified 4 days on 25 μM pyrabactin, germinated at RT, 90% RH for 3 days in darkness)
CC1=CC(=O)CC(C)(C)[C@@]1(O)/C=C/C(C)=C\C(=O)O [ABA, Abscisic acid] | 1 | – | –
O=S(=O)(NCc1ccccn1)c1ccc(Br)c2ccccc12 [pyrabactin] | 25 | inhibits germination | unable to germinate
